Data from patent US20100292185A1, “BETA-LACTAMASE INHIBITORS” (priority 2009, published 2010).
Counter-ions that a name gives are not always drawn. Like-named read-outs stand apart in the source and are kept apart here.

Assays:
[1] = test system: K. pneumoniae expressing the Class A Extended Spectrum Beta-Lactamase (ESBL) CTX-M-15; assay: In vitro antibacterial assay of β-lactamase inhibition (broth microdilution MIC), K. pneumoniae CTX-M-15; type: cell-based; details: in presence of Ceftazidime 8 μg/ml (Examples 1-56)
Excerpt: (§1) To determine the ability of test compounds to potentiate the inhibition of the growth of bacterial strains producing beta-lactamase enzymes, classic cell based screening assays were employed. Five bacteria strains producing beta-lactamase enzymes were used: K. pneumoniae expressing the Class A Extended Spectrum Beta-Lactamase (ESBL) CTX-M-15, E. coli expressing the Class A ESBL SHV-5, E. cloacae expressing the Class C P99+, K. pneumoniae expressing the Class A carbapenemase KPC-2, and P. aeruginosa expressing the Class B metallo β-lactamase VIM-2. In order to evaluate the ability of test compounds to inhibit beta-lactamase activity, Applicants used a modification of the broth microdilution assay. The assay was conducted in Cation Adjusted Mueller Hinton Broth (CAMHB, BD # 212322, BD Diagnostic Systems, Sparks, Md.). Bacteria strains were grown for 3-5 hours in CAMBH broth. All five strains were grown in presence of 50 μg/mL ampicillin to ensure resistance is maintained. In the meantime, test compounds were diluted in DMSO to a 0.1 mg/mL stock. The compounds were added to a microtiter plate and were diluted in 2-fold serial dilutions in CAMHB in a final concentration range of 8 μg/mL to 0.015 μg/ml. […] Each of these compound plates are made in quadruplicate, one for each bacteria strain. In addition to the titration of test compounds the MICs of a panel of cephalosporins is also tested to ensure the strains are behaving consistently from test to test. Once the test compound and cephalosporin are added the plates can be inoculated. Inocula are conducted according to CLSI broth microdilution method. After inoculation the plates are incubated for 16-20 hours at 37° C. then the Minimal Inhibitory Concentration (MIC) of the test compound is determined visually.
(§2) Using the methodology described above, examples of the current invention were evaluated for their ability to inhibit the growth of β-lactamase producing bacteria in the presence of a β-lactam antibiotic.

[2] = molecular target: T1, KPC-2 β-lactamase (Klebsiella pneumoniae, UniProt Q9F663); assay: β-lactamase enzyme inhibition assay (nitrocefin substrate), KPC-2; type: biochemical
T1 construct: expressed as native untagged proteins; made in house; host or cells: E. coli BL21(DE3)
Protocol: (§3) Isolation of β-lactamases. For SHV-5, p99 AmpC, KPC-2 and CTX-M15 β-lactamases, E. coli BL21(DE3) bacterial cells carrying expression plasmids (expressed as native untagged proteins) for the individual β-lactamases were grown in 1 L of Superbroth (Teknova Inc. Hollister, Calif.) supplemented with 100 μg/ml kanamycin and 1×5052 (0.5% glycerol, 0.05% glucose and 0.2% α-lactose) at 35° C. for 18-20 hours. Cells were harvested by centrifugation (4,000×g, 4° C., 20 min), and resuspended in 50 ml of 10 mM HEPES pH 7.5 (1/20 of the initial volume). The cells were lysed by sonication (5 pulses of 45 seconds) at 45 W on ice. The lysates were clarified by centrifugation at 10,000×g for 40 minutes at 4° C. Samples were diluted 5-fold in 50 mM sodium acetate pH 5.0, stored overnight at 4° C., after which they were centrifuged at 10,000×g for 30 minutes to clarify, and filtered through 0.45 μm filters. The samples were loaded onto a 5 ml Capto S sepharose cation exchange column (GE Healthcare) pre-equilibrated with 50 mM sodium acetate pH 5.0. The column was washed with 5 column volumes of 50 mM sodium acetate pH 5.0 to wash out unbound protein and a linear gradient of NaCl (0 to 500 mM) was used to elute the protein (over 16 CV) from the column. Fractions were assayed for β-lactamase activity using Centa (Calbiochem, Gibbstown, N.J.) as a reporter β-lactamase substrate for activity in the isolated fractions. Active fractions were pooled, concentrated and further purified by gel filtration chromatography on a Superdex 75 prep grade gel filtration column (GE Healthcare, Piscataway, N.J.) pre-equilibrated in 50 mM Hepes pH 7.5, 150 mM NaCl. Active fractions were pooled concentrated, quantitated by BCA protein determination (Thermo Scientific, Rockford, Ill.), and frozen at −80° C. in 20% glycerol until use.
(§4) β-lactamase Inhibition. To determine the level of inhibition of β-lactamase enzymes, compounds were diluted in PBS at pH 7.0 to yield concentrations between 100 and 0.005 μM in microtiter plates. An equal volume of diluted enzyme stock was added, and the plates were incubated at 37° C. for 10 min. Nitrocefin solution was then dispensed as substrate into each well at a final concentration of 100 μM, and the plates were immediately read with the kinetic program at 486 nm for 10 min on the SPECTRAMAX® Plus^384 (high-throughput microplate spectrophotometer; Molecular Devices Corp., Sunnyvale, Calif.). Maximum rates of metabolism were then compared to those in control wells (without inhibitors), and percentages of enzyme inhibition were calculated for each concentration of inhibitor. The concentration of inhibitor needed to reduce the initial rate of hydrolysis of substrate by 50% (IC50) was calculated as the residual activity of β-lactamase at 486 nm using the SoftMax Pro 5.0 software (Molecular Devices Corp.).
(§5) Using the methodology described above, examples of the current invention were evaluated for their ability to inhibit β-lactamase enzymes. The results of these assays are summarized in Table 2 for representative enzymes across different subtypes (note SHV-5 and CTXM-15 exemplify different subclasses of Ambler Class A Extended Spectrum Beta Lactamases, KPC-2 exemplifies Class A carbapenemases, P99 represents chromosomal Class C AmpC, VIM-2 exemplifies subclass B1 of metallo-β-lactamases, and OXA-23 represents chromosome-encoded Class D oxacillin-hydrolyzing β-lactamases), NT=not tested.

[3] = test system: P. aeruginosa expressing the Class B metallo β-lactamase VIM-2; assay: In vitro antibacterial assay of β-lactamase inhibition (broth microdilution MIC), P. aeruginosa VIM-2; type: cell-based; details: in presence of Ceftazidime 16 μg/mL (Examples 1-56)
Excerpt: as §1, §2

[4] = test system: E. coli expressing the Class A ESBL SHV-5; assay: In vitro antibacterial assay of β-lactamase inhibition (broth microdilution MIC), E. coli SHV-5; type: cell-based; details: in presence of Ceftazidime 8 μg/ml (Examples 1-56)
Excerpt: as §1, §2

[5] = test system: K. pneumoniae expressing the Class A carbapenemase KPC-2; assay: microbe, parasite or virus in culture; type: cell-based; details: in presence of Ceftazidime 8 μg/ml (Examples 1-56)
Excerpt: as §1, §2

[6] = test system: E. cloacae expressing the Class C P99+; assay: In vitro antibacterial assay of β-lactamase inhibition (broth microdilution MIC), E. cloacae P99+; type: cell-based; details: in presence of Ceftazidime 8 μg/ml (Examples 1-56)
Excerpt: as §1, §2

[7] = molecular target: T2, p99 AmpC β-lactamase (Enterobacter cloacae, UniProt P05364); assay: β-lactamase enzyme inhibition assay (nitrocefin substrate), P99 AmpC; type: biochemical
T2 construct: expressed as native untagged proteins; made in house; host or cells: E. coli BL21(DE3)
Protocol: as §3, §4, §5

[8] = molecular target: T3, SHV-5 β-lactamase (Klebsiella pneumoniae, UniProt P0A3M1); assay: β-lactamase enzyme inhibition assay (nitrocefin substrate), SHV-5; type: biochemical
T3 construct: expressed as native untagged proteins; made in house; host or cells: E. coli BL21(DE3)
Protocol: as §3, §4, §5

[9] = molecular target: T4, CTX-M15 β-lactamase (Escherichia coli, UniProt Q9EXV5); assay: β-lactamase enzyme inhibition assay (nitrocefin substrate), CTXM-15; type: biochemical
T4 construct: expressed as native untagged proteins; made in house; host or cells: E. coli BL21(DE3)
Protocol: as §3, §4, §5

[10] = nitrocefin 100 μM, 37° C., PBS pH 7.0, read-out: P99 AmpC IC50

T2 sequence (P05364 21-381): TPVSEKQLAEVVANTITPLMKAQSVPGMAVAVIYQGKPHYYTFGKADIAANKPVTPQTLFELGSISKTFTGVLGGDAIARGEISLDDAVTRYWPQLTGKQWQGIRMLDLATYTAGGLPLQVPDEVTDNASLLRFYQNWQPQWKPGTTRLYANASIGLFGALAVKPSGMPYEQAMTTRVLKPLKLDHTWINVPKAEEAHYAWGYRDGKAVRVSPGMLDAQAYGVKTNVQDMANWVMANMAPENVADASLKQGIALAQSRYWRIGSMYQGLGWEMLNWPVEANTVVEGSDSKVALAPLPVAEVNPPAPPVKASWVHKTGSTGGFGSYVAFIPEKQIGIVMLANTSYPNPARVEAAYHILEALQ
T1 sequence (Q9F663 25-293 limits assumed): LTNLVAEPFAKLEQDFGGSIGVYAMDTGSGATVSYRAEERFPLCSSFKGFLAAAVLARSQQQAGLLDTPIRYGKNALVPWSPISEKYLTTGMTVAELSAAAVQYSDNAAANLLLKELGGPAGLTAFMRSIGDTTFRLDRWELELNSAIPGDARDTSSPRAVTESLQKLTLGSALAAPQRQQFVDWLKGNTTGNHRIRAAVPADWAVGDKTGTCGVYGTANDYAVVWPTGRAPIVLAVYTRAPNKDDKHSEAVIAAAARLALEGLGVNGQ
T3 sequence (P0A3M1 22-286): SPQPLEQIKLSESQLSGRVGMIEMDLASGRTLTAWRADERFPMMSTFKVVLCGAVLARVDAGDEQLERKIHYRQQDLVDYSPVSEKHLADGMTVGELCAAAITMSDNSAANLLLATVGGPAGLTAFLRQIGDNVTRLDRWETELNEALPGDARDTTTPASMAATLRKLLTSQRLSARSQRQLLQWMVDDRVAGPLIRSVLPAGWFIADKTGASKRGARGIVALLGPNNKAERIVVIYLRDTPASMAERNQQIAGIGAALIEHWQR
T4 sequence (Q9EXV5 entry or part of it): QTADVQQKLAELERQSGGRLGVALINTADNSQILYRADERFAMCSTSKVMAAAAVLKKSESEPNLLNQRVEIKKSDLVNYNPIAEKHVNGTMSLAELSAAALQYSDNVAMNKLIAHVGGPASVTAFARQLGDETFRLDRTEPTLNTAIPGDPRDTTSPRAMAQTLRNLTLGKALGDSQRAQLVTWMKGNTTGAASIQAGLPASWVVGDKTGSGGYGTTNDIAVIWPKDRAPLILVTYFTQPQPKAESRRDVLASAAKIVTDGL

| Molecule | MIC of example compound, K. pneumoniae CTX-M-15 [1] | IC50 ([2]; nitrocefin 100 μM, 37° C., PBS pH 7.0, read-out: KPC-2 IC50) | MIC of example compound, P. aeruginosa VIM-2 [3] | MIC of example compound, E. coli SHV-5 [4] | MIC of example compound, K. pneumoniae KPC-2 [5] | MIC of example compound, E. cloacae P99+ [6] | IC50 [7, 10] | IC50 ([8]; nitrocefin 100 μM, 37° C., PBS pH 7.0, read-out: SHV-5 IC50) | IC50 ([9]; nitrocefin 100 μM, 37° C., PBS pH 7.0, read-out: CTXM-15 IC50) | IC50 [2] | IC50 [8] | IC50 [9] | IC50 [7] |
| --- | --- | --- | --- | --- | --- | --- | --- | --- | --- | --- | --- | --- | --- |
| (1R)-[4-(1-amino-cyclopropyl)]-benzoylamino]-(3-carboxy-2-hydroxy)benzyl-methylboronic acid formate [Example 22] | 2 µg/mL | 5 nM | >8 µg/mL | 8 µg/mL | 0.007 µg/mL | 0.5 µg/mL | 34 nM | > 1000 nM | 0.6 nM |  |  |  |  |
| CO/N=C(\C(=O)N[C@@H](Cc1cccc(C(=O)O)c1O)B(O)O)c1csc(NC(=O)CN)n1.Cl [Example 51, 3-(2(R)-{2-[2-(2-amino-acetylamino)-thiazol-4-yl]-2(Z)-methoxyimino-acetylamino}-2-borono-ethyl)-2-hydroxy-benzoic acid hydrochloride] | >8 µg/mL |  | >8 µg/mL | >8 µg/mL | >8 µg/mL | >8 µg/mL | 17 nM |  |  | 58 nM | 15 nM | 40 nM |  |
| Cl.O=C(N[C@@H](Cc1cccc(C(=O)O)c1O)B(O)O)c1ccc(CNCCO)cc1 [Example 16, (1R)-[4-(2-hydroxy-ethylamino)-methyl]-benzoylamino-(3-carboxy-2-hydroxy)benzyl-methyl boronic acid hydrochloride] | 1 µg/mL |  | 4 µg/mL | 8 µg/mL | 0.03 µg/mL | 0.25 µg/mL | 6 nM |  |  | 5 nM | > 1000 nM | 5 nM |  |
| O=C(N[C@@H](Cc1cccc(C(=O)O)c1O)B(O)O)c1cccc(CN(CCO)CCO)c1 [Example 23, (1R)-(3-{[bis-(2-hydroxy-ethyl)-amino]-methyl}-benzoylamino)-(3-carboxy-2-hydroxy)benzyl-methylboronic acid formate] | 1 µg/mL |  | >8 µg/mL | 8 µg/mL | 0.12 µg/mL | 2 µg/mL | 0.9 nM |  |  | 8.1 nM | 17 nM | 2 nM |  |
| O=C(N[C@@H](Cc1cccc(C(=O)O)c1O)B(O)O)c1cccc(CNc2cccnc2)c1 [Example 26, (1R)-[3-(pyridin-3-ylaminomethyl)-benzoylamino]-(3-carboxy-2hydroxy)benzyl-methylboronic acid formate] | 4 µg/mL |  | >8 µg/mL | >8 µg/mL | 0.5 µg/mL | 2 µg/mL | 0.4 nM |  |  | 11 nM | 94 nM | 1 nM |  |
| O=C(N[C@@H](Cc1cccc(C(=O)O)c1O)B(O)O)c1cccc(CNCCCO)c1 [Example 25, (1R)-[3-{(3-hydroxy-propylamino)-methyl}-benzoylamino]-(3-carboxy-2hydroxy)benzyl-methylboronic acid formate] | 1 µg/mL |  | >8 µg/mL | 8 µg/mL | 0.03 µg/mL | 0.5 µg/mL | 0.9 nM |  |  | 20 nM | 580 nM | 3 nM |  |
| CC(C)(O/N=C(\C(=O)N[C@@H](Cc1cccc(C(=O)O)c1O)B(O)O)c1csc(NC(=O)CN)n1)C(=O)O.Cl [Example 50, 3-{2(R)-[2-[2-(2-amino-acetylamino)-thiazol-4-yl]-2(Z)-(1-carboxy-1-methyl-ethoxyimino)-acetylamino]-2-borono-ethyl}-2-hydroxy-benzoic acid hydrochloride] | >8 µg/mL |  | >8 µg/mL | >8 µg/mL | >8 µg/mL | >8 µg/mL | 23 nM |  |  | 158 nM | 24 nM | 34 nM |  |
| CO/N=C(\C(=O)N[C@@H](Cc1cccc(C(=O)O)c1O)B(O)O)c1csc(NC(=O)[C@@H](N)CCCCN)n1 [Example 52, 3-(2(R)-{2-[2-(2(S),6-diamino-hexanoylamino)-thiazol-4-yl]-2(Z)-methoxyimino-acetylamino}-2-borono-ethyl)-2-hydroxy-benzoic acid hydrochloride] | >8 µg/mL |  | >8 µg/mL | >8 µg/mL | 2 µg/mL | >8 µg/mL |  |  |  | 89 nM | 26 nM | 55 nM | 8 nM |
